Source: PubChem BioAssay (NCI)
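Exposure lasted 48 hours, with cells grown in 96-well plates and compounds tested at five concentrations. TGI is the concentration that stops growth completely.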

Tests used:
Experiment in all cases: NCI anticancer screen, dose series, 48 h
ACHN renal = system: ACHN renal
M14 melanoma = system: M14 melanoma
SR leukemia = system: SR leukemia
DMS 273 small cell lung = system: DMS 273 small cell lung
LXFL 529 NSCLC = system: LXFL 529 NSCLC
HL-60(TB) leukemia = system: HL-60(TB) leukemia
NCI-H460 lung = system: NCI-H460 lung
EKVX NSCLC = system: EKVX NSCLC
M19-MEL melanoma = system: M19-MEL melanoma
MDA-MB-231 breast = system: MDA-MB-231 breast
T-47D breast = system: T-47D breast
MDA-N = system: MDA-N

## C[s+]1c2ccccc2c2ccccc21
ACHN renal
  TGI: > 100 µM
M14 melanoma
  TGI: > 100 µM
SR leukemia
  TGI: > 100 µM
DMS 273 small cell lung
  TGI: > 100 µM
LXFL 529 NSCLC
  TGI: > 100 µM
HL-60(TB) leukemia
  TGI: > 100 µM
NCI-H460 lung
  TGI: > 100 µM
EKVX NSCLC
  TGI: > 100 µM
M19-MEL melanoma
  TGI: > 100 µM

## NC(=O)CCC(N=c1c2ccccc2n(O)c2ccccc12)C(=O)O (stereo not given)
ACHN renal
  TGI: > 100 µM
M14 melanoma
  TGI: > 100 µM
DMS 273 small cell lung
  TGI: > 100 µM
LXFL 529 NSCLC
  TGI: > 100 µM
HL-60(TB) leukemia
  TGI: > 100 µM
NCI-H460 lung
  TGI: > 100 µM
EKVX NSCLC
  TGI: > 100 µM
M19-MEL melanoma
  TGI: > 100 µM

## Clc1ccc2c(NCCCCCCNc3ccnc4cc(Cl)ccc34)ccnc2c1
ACHN renal
  TGI: 8.91 µM
M14 melanoma
  TGI: 3.51 µM
SR leukemia
  TGI: 19.3 µM
DMS 273 small cell lung
  TGI: 11.7 µM
MDA-MB-231 breast
  TGI: 10.2 µM
T-47D breast
  TGI: 5.42 µM
LXFL 529 NSCLC
  TGI: 7.3 µM
HL-60(TB) leukemia
  TGI: 4.7 µM
NCI-H460 lung
  TGI: 6.3 µM
EKVX NSCLC
  TGI: 25.9 µM
MDA-N
  TGI: 8.86 µM
M19-MEL melanoma
  TGI: 8.83 µM

## CC(=O)n1[nH]c(=O)n(-c2ccc(Cl)cc2)c1=O
ACHN renal
  TGI: > 100 µM
M14 melanoma
  TGI: > 100 µM
SR leukemia
  TGI: > 100 µM
MDA-MB-231 breast
  TGI: > 100 µM
T-47D breast
  TGI: > 100 µM
HL-60(TB) leukemia
  TGI: > 100 µM
NCI-H460 lung
  TGI: > 100 µM
EKVX NSCLC
  TGI: > 100 µM
MDA-N
  TGI: > 100 µM

## COc1ccc(-c2ccc(C(=O)C=P(c3ccccc3)(c3ccccc3)c3ccccc3)cc2)cc1
ACHN renal
  TGI: 30.7 µM
M14 melanoma
  TGI: 31.6 µM
SR leukemia
  TGI: 73.6 µM
MDA-MB-231 breast
  TGI: 30.7 µM
T-47D breast
  TGI: 62.3 µM
HL-60(TB) leukemia
  TGI: 6.77 µM
NCI-H460 lung
  TGI: 20.5 µM
EKVX NSCLC
  TGI: 38.6 µM
MDA-N
  TGI: 28.9 µM

## COc1cccc2c1C(=O)c1c(O)c3c(c(O)c1C2=O)C[C@@](O)(C(C)=O)CC3OC1CC(OC2CC(N)C(O)C(C)O2)C(O)C(C)O1 (stereo not given in full)
ACHN renal
  TGI: > 100 µM
M14 melanoma
  TGI: > 100 µM
SR leukemia
  TGI: > 70 µM
MDA-MB-231 breast
  TGI: > 100 µM
T-47D breast
  TGI: > 100 µM
HL-60(TB) leukemia
  TGI: 34.8 µM
NCI-H460 lung
  TGI: > 100 µM
EKVX NSCLC
  TGI: > 100 µM
MDA-N
  TGI: > 100 µM

## CCc1nc(N)c2nc(-c3cccs3)oc2n1
ACHN renal
  TGI: > 100 µM
M14 melanoma
  TGI: > 100 µM
SR leukemia
  TGI: > 100 µM
MDA-MB-231 breast
  TGI: > 100 µM
T-47D breast
  TGI: > 100 µM
HL-60(TB) leukemia
  TGI: > 100 µM
NCI-H460 lung
  TGI: > 100 µM
EKVX NSCLC
  TGI: > 100 µM
MDA-N
  TGI: > 100 µM

## O=C1/C(=C/c2ccccc2)Oc2cc(O)ccc21
ACHN renal
  TGI: > 100 µM
M14 melanoma
  TGI: > 100 µM
SR leukemia
  TGI: > 100 µM
MDA-MB-231 breast
  TGI: > 100 µM
T-47D breast
  TGI: > 100 µM
HL-60(TB) leukemia
  TGI: > 100 µM
NCI-H460 lung
  TGI: > 100 µM
EKVX NSCLC
  TGI: > 100 µM
MDA-N
  TGI: > 100 µM

## CCCCCC[C@H]([C@H](C)O)n1cnc2c(N)ncnc21
ACHN renal
  TGI: > 100 µM
M14 melanoma
  TGI: > 100 µM
SR leukemia
  TGI: > 100 µM
MDA-MB-231 breast
  TGI: > 100 µM
T-47D breast
  TGI: > 100 µM
HL-60(TB) leukemia
  TGI: > 100 µM
NCI-H460 lung
  TGI: > 100 µM
EKVX NSCLC
  TGI: > 100 µM
MDA-N
  TGI: > 100 µM

## Clc1ccc2c(c1)N(CCCN1CCCC13CCCCC3)c1ccccc1S2
ACHN renal
  TGI: 47.5 µM
M14 melanoma
  TGI: 27.3 µM
SR leukemia
  TGI: 17.5 µM
MDA-MB-231 breast
  TGI: 21.5 µM
T-47D breast
  TGI: 30 µM
HL-60(TB) leukemia
  TGI: 5.18 µM
NCI-H460 lung
  TGI: 21.4 µM
EKVX NSCLC
  TGI: > 44 µM
MDA-N
  TGI: 26.2 µM

## CCOC(=O)c1cc(-c2ccc(OC)cc2)c([N+](=O)[O-])[nH]1
ACHN renal
  TGI: > 10 µM
M14 melanoma
  TGI: > 10 µM
SR leukemia
  TGI: > 10 µM
MDA-MB-231 breast
  TGI: > 10 µM
T-47D breast
  TGI: > 10 µM
HL-60(TB) leukemia
  TGI: > 10 µM
NCI-H460 lung
  TGI: > 10 µM
EKVX NSCLC
  TGI: > 10 µM
MDA-N
  TGI: > 3.16 µM

## CC(=O)NC1C(OCc2ccccc2)OC(CO)C(O)C1OC(C)C(=O)N[C@@H](C)C(=O)N[C@H](CCC(=O)NCCNCCNc1c2ccccc2nc2cccc([N+](=O)[O-])c12)C(N)=O (stereo not given in full)
ACHN renal
  TGI: 0.512 µM
M14 melanoma
  TGI: 0.436 µM
SR leukemia
  TGI: > 71.4 µM
MDA-MB-231 breast
  TGI: 0.639 µM
T-47D breast
  TGI: 0.598 µM
HL-60(TB) leukemia
  TGI: > 80.5 µM
NCI-H460 lung
  TGI: 0.0486 µM
EKVX NSCLC
  TGI: 2.74 µM
MDA-N
  TGI: 0.305 µM

## CC(C)(CO[C@H]1C[C@H]2CC[C@@]1(C)C2(C)C)[N+](=O)[O-]
ACHN renal
  TGI: > 100 µM
M14 melanoma
  TGI: 27.1 µM
SR leukemia
  TGI: 42.3 µM
MDA-MB-231 breast
  TGI: 34.6 µM
T-47D breast
  TGI: 45.6 µM
HL-60(TB) leukemia
  TGI: 22.5 µM
NCI-H460 lung
  TGI: 38.5 µM
EKVX NSCLC
  TGI: 46.2 µM
MDA-N
  TGI: 29.4 µM

## COC(=O)c1c2c(cc3c1CC1(Cc4cc5c(c(C=O)c4C1)CCC5)C3)CCC2 (stereo not given)
ACHN renal
  TGI: > 100 µM
M14 melanoma
  TGI: 75.6 µM
SR leukemia
  TGI: 53.7 µM
MDA-MB-231 breast
  TGI: 91.7 µM
T-47D breast
  TGI: > 100 µM
HL-60(TB) leukemia
  TGI: 51.5 µM
NCI-H460 lung
  TGI: > 100 µM
EKVX NSCLC
  TGI: > 100 µM
MDA-N
  TGI: > 100 µM

## COc1cc2c(cc1OC)C(=O)N(c1ccc(OCCN3CCCC3)cc1)C2
ACHN renal
  TGI: > 100 µM
M14 melanoma
  TGI: > 100 µM
SR leukemia
  TGI: > 100 µM
MDA-MB-231 breast
  TGI: > 100 µM
T-47D breast
  TGI: > 100 µM
HL-60(TB) leukemia
  TGI: > 100 µM
NCI-H460 lung
  TGI: > 100 µM
EKVX NSCLC
  TGI: > 100 µM
MDA-N
  TGI: > 100 µM

## CCN(CC)C(=S)SC(C(=O)Nc1nnc(-c2ccc(Cl)cc2)o1)c1ccccc1 (stereo not given)
ACHN renal
  TGI: 26.3 µM
M14 melanoma
  TGI: 27.6 µM
SR leukemia
  TGI: 38.3 µM
MDA-MB-231 breast
  TGI: 77.7 µM
T-47D breast
  TGI: 59.7 µM
HL-60(TB) leukemia
  TGI: > 100 µM
NCI-H460 lung
  TGI: 84.1 µM
EKVX NSCLC
  TGI: 29.4 µM
MDA-N
  TGI: 50.3 µM

## Cc1cn(CCCCCCOC(=O)NC(CCCNC(N)=O)C(=O)O)c(=O)[nH]c1=O (stereo not given)
ACHN renal
  TGI: > 100 µM
M14 melanoma
  TGI: > 100 µM
SR leukemia
  TGI: > 100 µM
MDA-MB-231 breast
  TGI: > 100 µM
T-47D breast
  TGI: > 100 µM
HL-60(TB) leukemia
  TGI: > 100 µM
NCI-H460 lung
  TGI: > 100 µM
EKVX NSCLC
  TGI: > 100 µM
MDA-N
  TGI: > 100 µM
